# Measurements as given in patent US11884710B2, “Peptide compounds and methods of use in wound healing” (priority 2013, dated 2024).
# Square brackets hold non-standard residues; d marks the D form. Peptide text beside a SMILES is read from it. PEG2 = NCCOCCOCCC(=O)O
# B1: HB-EGF: heparin binding-epidermal growth factor, used as the positive control (protein, UniProt Q99075 63-148, looked up)
# Heparin-binding EGF-like …: DLQEADLDLLRVTLSSKPQALATPNKEEHGKRKKKGKGLGKKRDPCLRKYKDFCIHGECKYVKELRAPSCICHPGYHGERCHGLSL
# How the values were obtained:
# P. aeruginosa ATCC 27853 = assay type: cell-based, Pseudomonas aeruginosa; conditions: Pseudomonas; inoculum 1×10^6 CFU/ml; 60 to 180 minute incubation
# Description: (§1) In vitro bactericidal activity: The three peptide compounds BCC01-5RMP (SEQ ID NO:23), BCC002-5RMP (SEQ ID NO:21), and BCC003-5RMP (SEQ ID NO:22) were assayed for in vitro bactericidal activity against Pseudomonas aeruginosa, Escherichia coli, Salmonella typhimurium, and Acinetobacter baumannii. The starting inoculum for all experiments was 1×10^6 colony forming units (CFU)/ml. The CFU remaining at the end of 60 to 180 minute incubation was determined, and the data plotted as a log reduction in CFU/ml.
# Table 4 further compares the activity of several other compounds, including the “5R” versions of BCC01, i.e., SEQ ID NO:20 (which comprises SEQ ID NO: 7 with five additional arginines), the “5R” version of BCC002 (i.e., SEQ ID NO:18, which comprises SEQ ID NO: 1 with five additional arginines), and the 5RMP versions of BCC01 (SEQ ID NO: 23) and BCC002 (SEQ ID NO: 21). The data generally indicate the superiority of BCC003-5RMP (SEQ ID NO:22) and BCC002-5RMP (SEQ ID NO: 21) and the superiority of the 5R or 5RMP versions of the peptide over the “AEEP only” peptide against P. aeruginosa.
# Escherichia coli = assay: In vitro bactericidal activity against Escherichia coli; assay type: cell-based; conditions: E. coli; inoculum 1×10^6 CFU/ml; 60 to 180 minute incubation
# Description: as §1
# [1] = system: release of TNF-α from LPS-stimulated RAW264.7 cells; assay: LPS neutralization: TNF-α release from LPS-stimulated RAW264.7 cells; assay type: cell-based, mouse
# Description: (§2) The well-characterized response of RAW264.7 macrophage cells was used to produce tumor necrosis-factor-alpha (TNF-α) in response to LPS to determine whether the peptides could dampen the release of this cytokine. […] Importantly, pre-treatment (3 hours prior to LPS addition) as well as post-treatment of the RAW264.7 cells (3 hours post LPS addition) with peptide dampened the cytokine release. […] The finding that the novel peptides bind and neutralize the effect of Pseudomonas LPS is of critical importance since this ensures that the novel therapeutic peptide compounds described herein will not only kill the bacteria, but will also neutralize the LPS endotoxin released by the bacteria which plays such an important role in the rapid progression of sepsis.
# (§3) BCC01-5RMP (SEQ ID NO:23), BCC002-5RMP (SEQ ID NO:21), and BCC003-5RMP (SEQ ID NO:22) were tested for their ability to bind lipopolysaccharide (LPS) using the limulus amebocyte lysate method (LAL). […] There was no statistical difference in their ability to bind LPS using the LAL technique. The ability of the peptides to neutralize LPS was assessed by determining their ability to attenuate the release of tumor necrosis factor-alpha (TNF-α) from LPS-stimulated RAW264.7 cells (a mouse macrophage cell line). […] No significant differences were observed between the three peptides to neutralize LPS as measured by cytokine release. Peptides based on sequence 120-146 (SEQ ID NOS:28-31) also bind and neutralize Pseudomonas LPS.
# Salmonella typhimurium = assay: In vitro bactericidal activity against Salmonella typhimurium; assay type: cell-based; conditions: inoculum 1×10^6 CFU/ml, 60 to 180 minute incubation
# Description: as §1
# Acinetobacter baumannii = assay: In vitro bactericidal activity against Acinetobacter baumannii; assay type: cell-based; conditions: inoculum 1×10^6 CFU/ml, 60 to 180 minute incubation
# Description: as §1
# Pseudomonas LPS = assay: LPS binding, Limulus Amebocyte Lysate (LAL) assay; conditions: LAL method
# Description: as §2, §3
# [2] = system: mouse corneal epithelium abrasion; assay: In vivo model of corneal wound healing; conditions: HB-EGF 250 ng/ml at 0 and 16 hours
# Description: (§4) The mouse corneal epithelium was removed using the AlgerBrush II (The Alger Company, Inc., Lago Vista, Tex.), and corneal abrasions were treated at 0 hours and 16 hours with peptide 95-122 (10^−5 M), or were left untreated in 0.9% sodium chloride (saline vehicle) Wound healing was monitored at 0, 16, and 24 hours using fluorescein staining and a camera-equipped inverted microscope. Data are represented as the percentage of wound closure at 16 hours and 24 hours and are expressed as means±SEM. The data are representative of at least 6 mice per group. *P<0.05 by unpaired t-test as compared to vehicle (0.9% sodium chloride) treated controls.
# as §4, with “II,” for “II (The Alger Company, Inc., Lago Vista, Tex.),”, “0” for “0 hours”, “120-146WH (10^−8 M or 10^−6” for “95-122 (10^−5”, “vehicle control).” for “vehicle)”, “group. ***P<0.001,” for “group.”
# (A) The epithelium of the mouse cornea was removed using the AlgerBrush II, and corneal abrasions were treated at 0 and 16 hours with HB-EGF (250 ng/ml), rCAP37 (250 ng/ml), or vehicle control (normal saline). Wound closure was monitored at 0, 16, 24, and 48 hours using fluorescein staining and a camera-equipped inverted microscope. Data are represented as the percentage of wound closure and are expressed as mean±SEM. The data are representative of at least 6 mice per group. The percentage of wound closure in response to treatment was compared to vehicle-treated controls by unpaired t-test, **P<0.01, *P<0.05. (B) Representative images of mouse corneal wounds are shown at 0, 16, 24, and 48 hours following treatment with vehicle, HB-EGF, and CAP37. Black dotted lines indicate the wound edge.
# In vivo model of corneal wound healing: The in vivo model of wound healing was carried out using a disposable biopsy punch (2 mm, Miltex, York, Pa.) to demarcate the mouse cornea and a 0.5 mm burr using the AlgerBrush II (The Alger Company, Inc., Lago Vista, Tex.) to remove the corneal epithelium.
# In vivo model of wound healing: Mice were anesthetized using ketamine (100 mg/kg; Bionichepharma, LLC., St. Lake Forrest, Ill.) and xylazine ([…]; Rompun; Bayer Corp., Shawnee Mission, Kans.), and the right cornea was wounded as follows. A disposable biopsy punch (2 mm, Miltex, York, Pa.) was used to demarcate the mouse cornea. The corneal epithelium was carefully removed within the 2 mm demarcated area with a 0.5 mm burr using the AlgerBrush II (The Alger Company, Inc., Lago Vista, Tex.). The corneal abrasions were treated at 0 and 16 hours with HB-EGF (250 ng/ml), rCAP37 (250 ng/ml), or vehicle control (0.9% sodium chloride, pH 5.5, Baxter, Deerfield, Ill.). Corneal abrasions were visualized using sterile fluorescein sodium ophthalmic strips USP (FLUORETS®, Chauvin Laboratory, Aubenas, France) dampened with sterile PBS. […] The areas of the open wound were quantitated using ImageJ software (US National Institutes of Health), and the results were reported as the percentage of wound closure.
# [3] = system: human corneal epithelial cell (HCEC); assay: HCEC chemotaxis, modified Boyden chemotaxis chamber; assay type: cell-based; conditions: HB-EGF 50 ng/ml; positive control
# Description: The effect of buffer control (0.1% BSA in Gey's buffer), heparin binding-epidermal growth factor (HB-EGF, 50 ng/ml), recombinant CAP37 (rCAP37, 250 ng/ml), 120-146QH (10^−12M, 10^−10 M, 10^−8 M, 10^−6M, and 10^−4M,) and 120-146QR (10^−10M, 10^−8M, 10^−6M, and 10^−4M) on HCEC chemotaxis was determined by the modified Boyden chemotaxis chamber method. HCEC chemotaxis was measured in response to HB-EGF, rCAP37, and peptides 120-146QH (SEQ ID NO:29) and 120-146QR (SEQ ID NO:28) after incubation for 3 hours at 37° C. Chemotaxis is expressed as a percent migration. The buffer control (no chemoattractant) is arbitrarily assigned the value of 100% migration. Data are expressed as means±SEM and are calculated from 6 observations for each test point. **P<0.01 by Wilcoxon signed-rank test as compared to controls.
# Chemotaxis: Chemotaxis assays were performed using the modified Boyden chemotaxis chamber assay. Peptide 120-146QH was used at 10^−4 M, 10^−6 M, 10^−8 M, 10^−10 M, and 10^−12 M, and peptide 120-146QR was used at 10^−4 M, 10^−6 M, 10^−8M, and 10^−10M.
# HCEC monolayers = assay: In vitro scratch assay of HCEC monolayers; assay type: cell-based, human; conditions: HB-EGF 250 ng/ml
# Description: (A) HCECs were grown to confluency and scratched using a 10 μl pipette tip. Scratched HCEC monolayers were treated with HB-EGF (250 ng/ml) or rCAP37 (25-2000 ng/ml), or were left untreated in basal Keratinocyte Serum Free Medium (KSFM). Wound closure was monitored at 0, 18, 24, and 48 hours utilizing a camera-equipped inverted microscope. The histogram represents data acquired at 48 hours, and the values are the mean±SEM of the percentage of wound closure. The data are representative of at least 4 independent experiments. The percentage of wound closure in treated monolayers was compared to untreated controls by one-way analysis of variance (ANOVA) followed by Dunnett's multiple comparison test, **P<0.01, *P<0.05. (B) Representative images of scratched monolayers treated with buffer control, HB-EGF, and rCAP37 (at 25, 100, and 250 ng/ml) are shown for each time point. Images were taken at 20× objective.
# In vitro model of wound healing: An in vitro scratch assay was used in order to determine the ability of rCAP37 to facilitate corneal wound healing. Human corneal epithelial cells were cultured as described above until they reached a confluent monolayer. Each monolayer was scratched using a 10 μl pipette tip to create two perpendicular lines. Monolayers were treated with heparin binding-epidermal growth factor (HB-EGF, 250 ng/ml; Becton Dickinson), rCAP37 (25-2000 ng/ml), or basal KSFM (Gibco). Wound closure was monitored at 0, 18, 24, and 48 hours utilizing a camera-equipped inverted microscope (TE2000-E; Nikon, Melville, N.Y.). Time-lapse images of in vitro wound closure were obtained using a camera-equipped inverted microscope (TE2000-E; Nikon) from […]. HCEC monolayers were treated with HB-EGF, rCAP37, and basal KSFM as described above. The width of each scratch was quantitated using ImageJ software (US National Institutes of Health, Bethesda, Md.). Results are presented as the percentage of wound closure.
Molecule,"in vitro bactericidal activity, in words (P. aeruginosa ATCC 27853)","in vitro bactericidal activity, in words (Escherichia coli)",neutralization of LPS: attenuation of TNF-α release [1],"in vitro bactericidal activity, in words (Salmonella typhimurium)","in vitro bactericidal activity, in words (Acinetobacter baumannii)",binding of Pseudomonas LPS (Pseudomonas LPS),"corneal wound closure vs buffer control, in words [2]","migration of HCECs vs buffer control, in words [3]",time to complete closure of scratch wounds (HCEC monolayers; CAP37 250 ng/ml) [h],percentage wound closure (HCEC monolayers; positive control) [%]
CC[C@H](C)[C@H](NC(=O)[C@H](CC(C)C)NC(=O)[C@H](C)NC(=O)CNC(=O)CNC(=O)[C@H](CS)NC(=O)[C@H](Cc1ccccc1)NC(=O)[C@H](Cc1c[nH]cn1)NC(=O)[C@H](CCCNC(=N)N)NC(=O)CNC(=O)[C@H](CCC(N)=O)NC(=O)[C@H](CC(N)=O)NC(=O)[C@H](CCCNC(=N)N)NC(=O)[C@H](CCCNC(=N)N)NC(=O)[C@H](CCCNC(=N)N)NC(=O)[C@H](CCCNC(=N)N)NC(=O)CCOCCOCCNC(=O)CCOCCOCCN)C(=O)N[C@@H](Cc1c[nH]cn1)C(=O)N[C@@H](C)C(=O)N[C@@H](CCCNC(=N)N)C(=O)N[C@@H](Cc1ccccc1)C(=O)N[C@H](C(=O)N[C@@H](CCSC)C(=O)N[C@H](C(=O)N[C@@H](C)C(=O)N[C@@H](C)C(=O)N[C@@H](CO)C(=O)N[C@@H](CS)C(=O)N[C@@H](Cc1ccccc1)C(=O)N[C@@H](CCC(N)=O)C(=O)N[C@@H](CCCNC(=N)N)C(=O)O)[C@@H](C)O)C(C)C [BCC01-5RMP] (H-[PEG2][PEG2]RRRRNQGRHFCGGALIHARFVMTAASCFQR-OH; C-terminus assumed),most active,"strong, but lesser activity",attenuate the release of TNF-α,"strong, but lesser activity",most active,bound Pseudomonas LPS,,,,
B1,,,,,,,significantly higher compared to the buffer control,significant increase in migration,≤ 24,~88
